In patent US9120749B2, “Quinoline derivatives and MELK inhibitors containing the same” (ONCOTHERAPY SCIENCE, INC., priority 2010, dated 2015):
Structures can show the parent of a compound that is named as a salt.

molecular target: MELK (Homo sapiens, UniProt Q14680); assay: Kinase assay: MELK activity, phosphorylation of FITC-labeled histone H3 peptide measured by IMAP fluorescence polarization; type: biochemical; details: MELK kinase assay, IMAP fluorescence polarization, 50 micro-M ATP; read-out: IC50 (μM) (kinase assay)
Description: MELK activity was determined in the presence or absence of compounds using fluorescein isothiocyanate-labeled (FITC-labeled) histone H3 peptide as a substrate. […] Test compounds were dissolved in DMSO at 12.5 mM and then serially diluted as the DMSO concentration in the assays to be 1%. […] The reaction was stopped by the addition of three fold assay volume of progressive binding solution. Following 0.5 hour incubation at room temperature, fluorescence polarization was measured by Wallac EnVision 2103 multilabel reader (PerkinElmer).

Sequence of MELK (Q14680 whole entry, looked up): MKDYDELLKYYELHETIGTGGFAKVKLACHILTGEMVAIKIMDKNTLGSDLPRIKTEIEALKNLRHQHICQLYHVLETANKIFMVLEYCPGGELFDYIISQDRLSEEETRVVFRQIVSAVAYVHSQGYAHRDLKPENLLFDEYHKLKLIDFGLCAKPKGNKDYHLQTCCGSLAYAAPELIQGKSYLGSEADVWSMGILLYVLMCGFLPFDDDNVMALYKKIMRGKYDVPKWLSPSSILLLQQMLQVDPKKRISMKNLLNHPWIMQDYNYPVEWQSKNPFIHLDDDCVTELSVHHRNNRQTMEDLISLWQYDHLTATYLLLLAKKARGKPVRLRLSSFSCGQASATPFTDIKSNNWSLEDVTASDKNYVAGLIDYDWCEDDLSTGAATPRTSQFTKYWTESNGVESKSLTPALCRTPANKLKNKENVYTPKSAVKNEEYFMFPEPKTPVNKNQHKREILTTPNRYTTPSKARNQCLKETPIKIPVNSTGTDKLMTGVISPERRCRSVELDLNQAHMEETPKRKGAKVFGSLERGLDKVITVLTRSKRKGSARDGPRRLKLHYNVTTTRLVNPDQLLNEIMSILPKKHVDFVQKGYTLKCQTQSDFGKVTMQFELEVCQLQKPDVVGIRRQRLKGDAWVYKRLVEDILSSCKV

Structure (SMILES)	IC50 [µM]
CN(C)[C@H]1CC[C@H](Nc2c(C(=O)C3CC3)cnc3ccc(-c4cc(F)c(O)c(Cl)c4)cc23)CC1 [Example 264, (6-(3-chloro-5-fluoro-4-hydroxyphenyl)-4-((1R,4R)-4-(dimethylamino)cyclohexylamino)quinolin-3-yl)(cyclopropyl)methanone]	0.0029
CN(C)C[C@H]1CC[C@H](Nc2c(C(=O)C3CC3)cnc3ccc(-c4cc(Cl)c(O)c(Cl)c4)cc23)CC1 [Example 324, cyclopropyl(6-(3,5-dichloro-4-hydroxyphenyl)-4-(trans-4-((dimethylamino)methyl)cyclohexylamino)quinolin-3-yl)methanone]	0.00085
O=C(c1cnc2ccc(-c3cc(Cl)c(O)c(Cl)c3)cc2c1Nc1ccc(CN2CCCC2)cc1)C1CC1 [Example 366, Cyclopropyl{6-(3,5-dichloro-4-hydroxyphenyl)-4-[4-(pyrrolidin-1-ylmethyl)phenylamino]quinolin-3-yl}methanone]	0.15
CC(=O)c1cnc2ccc(-c3cc(Cl)c(O)c(Cl)c3)cc2c1Nc1ccc(CN(C)C)cc1 [Example 374]	0.0066
CC(=O)c1cnc2ccc(-c3cc(F)c(O)c(Cl)c3)cc2c1N[C@H]1CC[C@H](CN(C)C)CC1 [Example 378, 1-(6-(3-chloro-5-fluoro-4-hydroxyphenyl)-4-((trans)-4-((dimethylamino)methyl)cyclohexylamino)quinolin-3-yl) ethanone]	0.0061
CC(=O)c1c(C)nc2ccc(-c3cc(Cl)c(O)c(Cl)c3)cc2c1N[C@H]1CC[C@H](CN(C)C)CC1 [Example 833, 1-(6-(3,5-dichloro-4-hydroxyphenyl)-4-(1R,4R)-4-((dimethylamino)methyl)cyclohexylamino)-2-methylquinolin-3-yl)ethanone hydrochloride]	0.17
CC(=O)c1c(C)nc2ccc(-c3cc(F)c(O)c(Cl)c3)cc2c1N[C@H]1CC[C@H](CN(C)C)CC1 [Example 834, 1-(6-(3-chloro-5-fluoro-4-hydroxy-phenyl)-4-(1R,4R)-4-((dimethylamino)methyl)cyclohexylamino)-2-methyl-quinolin-3-yl)ethanone hydrochloride]	0.82
CC(=O)c1c(C)nc2ccc(-c3cc(F)c(O)c(Cl)c3)cc2c1Nc1ccc(N2CCN(C)CC2)nc1 [Example 837, 1-(6-(3-chloro-5-fluoro-4-hydroxy-phenyl)-2-methyl-4-(6-(4-methyl-piperazin-1-yl)pyridin-3-ylamino)quinolin-3-yl)ethanone hydrochloride]	0.54
CN1CCN(c2ccc(Nc3c(C(=O)C4CC4)cnc4cc(C(F)(F)F)c(-c5cc(Cl)c(O)c(Cl)c5)cc34)cn2)CC1 [Example 839, cyclopropyl(6-(3,5-dichloro-4-hydroxy-phenyl)-4-(6-(4-methylpiperazin-1-yl)pyridin-3-ylamino)-7-(trifluoro-methyl)quinolin-3-yl)methanone]	4.2
CN1CCN(c2ccc(Nc3c(C(=O)C4CC4)cnc4cc(C(F)(F)F)c(-c5cc(F)c(O)c(Cl)c5)cc34)cn2)CC1 [Example 840, (6-(3-chloro-5-fluoro-4-hydroxyphenyl)-4-(6-(4-methylpiperazin-1-yl)pyridin-3-ylamino)-7-(trifluoromethyl)quinolin-3-yl)(cyclopropyl)methanone]	3.1
CN(C)C[C@H]1CC[C@H](Nc2c(C(=O)C3CC3)cnc3cc(C(F)(F)F)c(-c4cc(F)c(O)c(Cl)c4)cc23)CC1 [Example 841]	0.77
CN(C)C[C@H]1CC[C@H](Nc2c(C(=O)C3CC3)cnc3cc(C(F)(F)F)c(-c4cc(Cl)c(O)c(Cl)c4)cc23)CC1 [Example 842]	0.93
CC(=O)c1cnc2cc(C)c(-c3cc(Cl)c(O)c(Cl)c3)cc2c1Nc1ccc(CN(C)C)cc1 [Example 847, 1-(6-(3,5-dichloro-4-hydroxyphenyl)-4-(4-((dimethylamino)methyl)phenyl-amino)-7-methylquinolin-3-yl) ethanone hydrochloride]	0.55
CC(=O)c1cnc2cc(C)c(-c3cc(F)c(O)c(Cl)c3)cc2c1Nc1ccc(N2CCN(C)CC2)nc1 [Example 856, 1-(6-(3-chloro-5-fluoro-4-hydroxy-phenyl)-7-methyl-4-((6-(4-methyl-piperazin-1-yl)pyridin-3-yl)amino)quinolin-3-yl)ethanone hydrochloride]	0.46
CC(=O)c1cnc2cc(C)c(-c3cc(Cl)c(O)c(Cl)c3)cc2c1N[C@H]1CC[C@H](CN(C)C)CC1 [Example 857]	3.4
CC(=O)c1cnc2cc(C)c(-c3cc(F)c(O)c(Cl)c3)cc2c1Nc1ccc(CN(C)C)cc1 [Example 858, 1-(6-(3-chloro-5-fluoro-4-hydroxy-phenyl)-4-((4-((dimethylamino)methyl)phenyl)amino)-7-methylquinolin-3-yl)ethanone hydrochloride]	0.2
CC(=O)c1cnc2cc(C)c(-c3cc(F)c(O)c(Cl)c3)cc2c1N[C@H]1CC[C@H](CN(C)C)CC1 [Example 859, 1-(6-(3-chloro-5-fluoro-4-hydroxy-phenyl)-4-((1R,4R)-4-((dimethylamino)methyl)cyclohexyl)amino)-7-methyl-quinolin-3-yl)ethanone hydrochloride]	0.84
CC(=O)c1cnc2ccc(-c3ccc(-c4ccc(O)cc4)cc3)cc2c1Nc1cccc(CCN2CCCC2)c1 [Example 888, 1-(6-(4′-hydroxy-[1,1′-biphenyl]-4-yl)-4-((3-(2-(pyrrolidin-1-yl)ethyl)phenyl)amino)quinolin-3-yl) ethanone hydrochloride]	3.4
CC(=O)c1cnc2ccc(-c3ccc4nc[nH]c4c3)cc2c1Nc1cccc(CCN2CCCC2)c1 [Example 896, 1-(6-(1H-benzo[d]imidazol-6-yl)-4-((3-(2-(pyrrolidin-1-yl)ethyl)phenyl)amino)quinolin-3-yl)ethanone hydrochloride]	0.22
CC(=O)c1cnc2ccc(-c3ccc4nc[nH]c4c3)cc2c1Nc1ccc(N2CCC(N(C)C)C2)nc1 (stereo not drawn) [Example 905, 1-(6-(1H-benzo[d]imidazol-6-yl)-4-((6-(3-(dimethylamino)pyrrolidin-1-yl)pyridin-3-yl)amino)quinolin-3-yl) ethanone hydrochloride]	0.11
CC(=O)c1cnc2ccc(-c3ccncc3)cc2c1N[C@H]1CC[C@H](CN(C)C)CC1 [Example 908, 1-(4-((1R,4R)-4-((dimethylamino)methyl)cyclohexyl)amino)-6-(pyridin-4-yl)quinolin-3-yl)ethanone hydrochloride]	0.23
COc1ccc2c(c1)CN(c1ccc3ncc(C(C)=O)c(N[C@H]4CC[C@H](CN(C)C)CC4)c3c1)C2=O [Example 933]	1.2
N[C@H]1CC[C@H](Nc2c(C(=O)C3CC3)cnc3ccc(-c4cc(F)c(O)c(Cl)c4)cc23)CC1 [Example 936, (4-((1R,4R)-4-aminocyclohexylamino)-6-(3-chloro-5-fluoro-4-hydroxyphenyl)quinolin-3-yl)(cyclopropyl)methanone, hydrochloride]	0.0019

same assay, conditions: hydrochloride; read-out: IC50 (μM) (kinase assay)

Structure (SMILES)	IC50 [µM]
CN(CCO)C[C@H]1CC[C@H](Nc2c(C(=O)C3CC3)cnc3ccc(-c4cc(Cl)c(O)c(Cl)c4)cc23)CC1 [Example 635, cyclopropyl(6-(3,5-dichloro-4-hydroxyphenyl)-4-(1R,4R)-4-(((2-hydroxyethyl)(methyl)amino)methyl)cyclohexylamino)quinolin-3-yl)methanone hydrochloride]	0.00074
